Data reported in patent US10828315B2 (Madrigal Pharmaceuticals, Inc., priority 2013, dated 2020).

Assay: Physical appearance of SDC-TRAP-0063 formulations and infusion solutions with different diluents and carbonate buffers
Assay type: physicochemical
Conditions: for Observations (physical appearance): 5% v/v DMSO
Experimental: First, a stock solution of SDC-TRAP-0063 was prepared in DMSO at 22 mg/mL, then the required amount of tween 80 was added and mixed well.
The above formulation containing SDC-TRAP-0063 was diluted using either D5W, D5W (pH 10.5, adjusted with 4.55 mM NaOH) or carbonate buffer, pH 10) (final drug concentration.: 1 mg/mL SDC-TRAP-0063, 1.8% v/v Tween 80, 5% v/v DMSO). The physical observations on these solutions were noted before and filtration through 0.22μ PES filter and were further observed for 3 hr. Refer to the table below for summary of observations. Note: Carbonate buffer, pH 10 was prepared by mixing 0.1M sodium carbonate (27.5 mL) and 0.1M sodium bicarbonate (22.5 mL) and qs 200 mL with DIW. The total Na content of carbonate buffer was 39 mM.
A stock solution of SDC-TRAP-0063 was prepared in either DMSO or PEG-300. To prepare formulations containing DMSO and tween 80, required amount of tween 80 added to the stock of DMSO (containing SDC-TRAP-0063). The formulations were then was diluted with carbonate buffer, pH 10 (composition: add and mix 0.1M sodium carbonate (27.5 mL) and 0.1M sodium bicarbonate (22.5 mL) and qs 200 mL with DIW). The samples (prepared in glass vial) were mixed well and observed for physical appearance while stirring on a magnetic stirring plate at ambient. (Note-appropriate amounts of SDC-TRAP-0063, tween 80, DMSO and PEG-300, as applicable were used to prepare the solutions at the desired concentrations and drug concentrations at 1 mg/mL through 5 mg/mL as shown).
Carbonate buffers of different pH (pH 9-10) and ionic strengths (with higher (>2) Na contents that SDC-TRAP-0063 on molar basis) were prepared and used for diluting the DMSO/tween 80 formulation loaded with SDC-TRAP-0063 (as described in earlier section 3). The final concentrations of DMSO and tween 80 in the diluted carbonate buffer were 5% v/v and 1.8% v/v respectively. The drug concentration was kept constant (5 mg/mL) for all diluted samples.

## CCc1c2c(nc3ccc(OC(=O)N4CCC(CCn5ccc6cc(-n7c(O)nnc7-c7cc(C(C)C)c(O)cc7O)ccc65)CC4)cc13)-c1cc3c(c(=O)n1C2)COC(=O)[C@]3(O)CC [SDC-TRAP-0063, 4,11-diethyl-4-hydroxy-3,14-dioxo-3,4,12,14-tetrahydro-1H-pyrano[3′,4′:6,7]indolizino[1,2-b]quinolin-9-yl 4-(2-(5-(3-(2,4-dihydroxy-5-isopropylphenyl)-5-hydroxy-4H-1,2,4-triazol-4-yl)-1H-indol-1-yl)ethyl)piperidine-1-carboxylate]
22 mg/mL in DMSO, and after addition of tween 80
  physical appearance of stock solution: clear and homogenous
5% v/v DMSO + […] v/v tween 80, 1-5 mg/mL
  physical appearance after dilution with carbonate buffer, pH 10: clear at 2 hr of stirring
[…] v/v Tween 80, carbonate buffer pH 10 (39 mM Na), 1 mg/mL, 30 min
  Observations (physical appearance): Clear
[…] v/v Tween 80, carbonate buffer pH 10 (39 mM Na), 1 mg/mL, 1 h
  Observations (physical appearance): Clear
[…] v/v Tween 80, carbonate buffer pH 10 (39 mM Na), 1 mg/mL, 2 h
  Observations (physical appearance): Clear
[…] v/v Tween 80, carbonate buffer pH 10 (39 mM Na), 1 mg/mL, Initial
  Observations (physical appearance): Clear
[…] v/v Tween 80, carbonate buffer pH 10 (39 mM Na), 1 mg/mL, Overnight
  Observations (physical appearance): Clear
[…] v/v Tween 80, carbonate buffer pH 10 (39 mM Na), 2 mg/mL, 30 min
  Observations (physical appearance): Clear
[…] v/v Tween 80, carbonate buffer pH 10 (39 mM Na), 2 mg/mL, 1 h
  Observations (physical appearance): Clear
[…] v/v Tween 80, carbonate buffer pH 10 (39 mM Na), 2 mg/mL, 2 h
  Observations (physical appearance): Clear
[…] v/v Tween 80, carbonate buffer pH 10 (39 mM Na), 2 mg/mL, Initial
  Observations (physical appearance): Clear
[…] v/v Tween 80, carbonate buffer pH 10 (39 mM Na), 2 mg/mL, Overnight
  Observations (physical appearance): Clear
[…] v/v Tween 80, carbonate buffer pH 10 (39 mM Na), 3 mg/mL, 30 min
  Observations (physical appearance): Cloudy
[…] v/v Tween 80, carbonate buffer pH 10 (39 mM Na), 3 mg/mL, 1 h
  Observations (physical appearance): Clear
[…] v/v Tween 80, carbonate buffer pH 10 (39 mM Na), 3 mg/mL, 2 h
  Observations (physical appearance): Clear
[…] v/v Tween 80, carbonate buffer pH 10 (39 mM Na), 3 mg/mL, Initial
  Observations (physical appearance): Cloudy
[…] v/v Tween 80, carbonate buffer pH 10 (39 mM Na), 3 mg/mL, Overnight
  Observations (physical appearance): Clear
[…] v/v Tween 80, carbonate buffer pH 10 (39 mM Na), 4 mg/mL, 30 min
  Observations (physical appearance): Cloudy
[…] v/v Tween 80, carbonate buffer pH 10 (39 mM Na), 4 mg/mL, 1 h
  Observations (physical appearance): Cloudy
[…] v/v Tween 80, carbonate buffer pH 10 (39 mM Na), 4 mg/mL, 2 h
  Observations (physical appearance): Clear
[…] v/v Tween 80, carbonate buffer pH 10 (39 mM Na), 4 mg/mL, Initial
  Observations (physical appearance): Cloudy
[…] v/v Tween 80, carbonate buffer pH 10 (39 mM Na), 4 mg/mL, Overnight
  Observations (physical appearance): Clear
[…] v/v Tween 80, carbonate buffer pH 10 (39 mM Na), 5 mg/mL, 30 min
  Observations (physical appearance): Cloudy
[…] v/v Tween 80, carbonate buffer pH 10 (39 mM Na), 5 mg/mL, 1 h
  Observations (physical appearance): Cloudy
[…] v/v Tween 80, carbonate buffer pH 10 (39 mM Na), 5 mg/mL, 2 h
  Observations (physical appearance): Clear
[…] v/v Tween 80, carbonate buffer pH 10 (39 mM Na), 5 mg/mL, Initial
  Observations (physical appearance): Cloudy
[…] v/v Tween 80, carbonate buffer pH 10 (39 mM Na), 5 mg/mL, Overnight
  Observations (physical appearance): Clear
[…] v/v Tween 80, 5 mg/mL, Carbonate buffer, pH 9.2 (25 mM Na), 1 h
  Observations (physical appearance): Cloudy
[…] v/v Tween 80, 5 mg/mL, Carbonate buffer, pH 9.2 (25 mM Na), 2 h
  Observations (physical appearance): Cloudy
[…] v/v Tween 80, 5 mg/mL, Carbonate buffer, pH 9.2 (25 mM Na), 3 h
  Observations (physical appearance): Cloudy
[…] v/v Tween 80, 5 mg/mL, Carbonate buffer, pH 9.2 (25 mM Na), Initial
  Observations (physical appearance): Cloudy
[…] v/v Tween 80, 5 mg/mL, Carbonate buffer, pH 9.2 (25 mM Na), Overnight
  Observations (physical appearance): Cloudy
[…] v/v Tween 80, 5 mg/mL, Carbonate buffer, pH 9.5 (26.5 mM Na), 1 h
  Observations (physical appearance): Cloudy
[…] v/v Tween 80, 5 mg/mL, Carbonate buffer, pH 9.5 (26.5 mM Na), 2 h
  Observations (physical appearance): Cloudy
[…] v/v Tween 80, 5 mg/mL, Carbonate buffer, pH 9.5 (26.5 mM Na), 3 h
  Observations (physical appearance): Cloudy
[…] v/v Tween 80, 5 mg/mL, Carbonate buffer, pH 9.5 (26.5 mM Na), Initial
  Observations (physical appearance): Cloudy
[…] v/v Tween 80, 5 mg/mL, Carbonate buffer, pH 9.5 (26.5 mM Na), Overnight
  Observations (physical appearance): Cloudy
[…] v/v Tween 80, 5 mg/mL, Carbonate buffer, pH 9.5 ([…] Na), 1 h
  Observations (physical appearance): Cloudy
[…] v/v Tween 80, 5 mg/mL, Carbonate buffer, pH 9.5 ([…] Na), 2 h
  Observations (physical appearance): Cloudy
[…] v/v Tween 80, 5 mg/mL, Carbonate buffer, pH 9.5 ([…] Na), 3 h
  Observations (physical appearance): Clear
[…] v/v Tween 80, 5 mg/mL, Carbonate buffer, pH 9.5 ([…] Na), Initial
  Observations (physical appearance): Cloudy
[…] v/v Tween 80, 5 mg/mL, Carbonate buffer, pH 9.5 ([…] Na), Overnight
  Observations (physical appearance): Clear
[…] v/v Tween 80, 5 mg/mL, Carbonate buffer, pH 10 (39 mM Na), 1 h
  Observations (physical appearance): Cloudy
[…] v/v Tween 80, 5 mg/mL, Carbonate buffer, pH 10 (39 mM Na), 2 h
  Observations (physical appearance): Clear yellow
[…] v/v Tween 80, 5 mg/mL, Carbonate buffer, pH 10 (39 mM Na), 3 h
  Observations (physical appearance): Clear yellow
[…] v/v Tween 80, 5 mg/mL, Carbonate buffer, pH 10 (39 mM Na), Initial
  Observations (physical appearance): Cloudy
[…] v/v Tween 80, 5 mg/mL, Carbonate buffer, pH 10 (39 mM Na), Overnight
  Observations (physical appearance): Clear yellow
[…] v/v Tween 80, 5 mg/mL, Carbonate buffer, pH 10 (155 mM Na), 1 h
  Observations (physical appearance): Clear
[…] v/v Tween 80, 5 mg/mL, Carbonate buffer, pH 10 (155 mM Na), 2 h
  Observations (physical appearance): Clear yellow
[…] v/v Tween 80, 5 mg/mL, Carbonate buffer, pH 10 (155 mM Na), 3 h
  Observations (physical appearance): Clear yellow
[…] v/v Tween 80, 5 mg/mL, Carbonate buffer, pH 10 (155 mM Na), Initial
  Observations (physical appearance): Cloudy
[…] v/v Tween 80, 5 mg/mL, Carbonate buffer, pH 10 (155 mM Na), Overnight
  Observations (physical appearance): Clear yellow
Carbonate buffer pH 10 (39 mM Na), 1 mg/mL, 30 min
  Observations (physical appearance): Cloudy
Carbonate buffer pH 10 (39 mM Na), 1 mg/mL, 1 h
  Observations (physical appearance): Cloudy
Carbonate buffer pH 10 (39 mM Na), 1 mg/mL, 6 h
  Observations (physical appearance): Cloudy
Carbonate buffer pH 10 (39 mM Na), 1 mg/mL, Initial
  Observations (physical appearance): Cloudy
